This note sets out measurements from US20260364080A1, “PYRAZOLO-PYRIMIDINONE COMPOUNDS FOR USE IN METHODS OF INHIBITING WEE1 A KINASE” (Acrivon Therapeutics, Inc., priority 2023, published 2026).

In test [1] the target is T1, Wee1A kinase (CDK1 Tyr15 phosphorylation in ACHN renal cell carcinoma cells) (Homo sapiens, UniProt P30291).
T1 construct: pCDK1 Tyr15 immunofluorescence read-out
In words: High-content imaging of pCdk1 Y15, Wee1A kinase target engagement in ACHN cells. The class given is cell-based. To be noted: 4 h treatment, nuclear positivity for pCdk1 Y15 vs DMSO control, read-out: CDK1 Tyr15 Phosphorylation EC50. Here is the method: Each of an ACHN renal cell carcinoma cell line (ATCC) and a DAOY medulloblastoma cell line, and an A427 lung cancer line were cultured in Minimum Essential Medium Eagle supplemented with 10% fetal calf serum (Sigma), 1% Penicillin-Streptomycin and 10 mM HEPES buffer (HyClone). Cell cultures were kept in a humidified incubator at 37 °C and 5% CO2. Cells were routinely tested for Mycoplasma contamination.
For target engagement assessment of Wee1A kinase inhibition, high-content imaging of ACHN renal cell carcinoma cells was used for quantification of CDK1 phosphorylated on tyrosine 15 by immunofluorescence (“IF”). 20,000 cells per well were seeded in tissue culture treated 96 well plates and treated with compounds at concentrations ranging from 7 to 5,000 nM or from 0.3 to 200 nM for 4h. Cells were fixated for 15 minutes in 4% paraformaldehyde solution, washed in PBS and permeabilized using 0.2% Triton X-100. Blocking was performed for 1 h at RT using Blocker FL Fluorescent Blocking Buffer (Thermo Scientific), thereafter cells were incubated with primary antibody (rabbit anti-pCDK1 Y^15, #4539, Cell Signaling Technology) at 4 °C ON. Alexa Fluor Plus 647 labelled goat anti-rabbit (A32733, Thermo Scientific) was used as secondary antibody. After washing in PBS, nuclei were stained with DAPI solution for 10 min at RT, protected from light. Cells were imaged using an ImageXpress Pico automated imaging system and CellReporter Xpress software (Molecular Devices). The percentage of cells with nuclear positivity for pCdk1 Y^15 compared to DMSO control was determined for each well and drug dose response curves and EC50 values were calculated and visualized using GraphPad Prism. Target engagement for Wee1A kinase can also be measured using the same AlphaLISA assay in OVCAR3 cells, an ovarian cancer cell line. NIH:OVCAR-3 (OVCAR3) cells are cultured in RPMI-1640 medium supplemented with 0.01 mg/ml insulin, 20% FBS, 1% Penicillin-Streptomycin and 10 mM HEPES buffer. 14,000 cells per well are seeded into 96 well tissue culture plates in full medium. Twenty-four hours post seeding, cells are treated with compound for 4 hours at concentrations ranging from 0.017 nM to 1000 nM.

The target of test [2] is T2, Myt1 kinase (recombinant PMYT-1) (Homo sapiens, UniProt Q99640).
T2 construct: full length PMYT-1 was expressed by baculovirus in insect cells; purchased Invitrogen A30984; host or cells: insect cells (baculovirus)
T2 sequence (Q99640 1-499): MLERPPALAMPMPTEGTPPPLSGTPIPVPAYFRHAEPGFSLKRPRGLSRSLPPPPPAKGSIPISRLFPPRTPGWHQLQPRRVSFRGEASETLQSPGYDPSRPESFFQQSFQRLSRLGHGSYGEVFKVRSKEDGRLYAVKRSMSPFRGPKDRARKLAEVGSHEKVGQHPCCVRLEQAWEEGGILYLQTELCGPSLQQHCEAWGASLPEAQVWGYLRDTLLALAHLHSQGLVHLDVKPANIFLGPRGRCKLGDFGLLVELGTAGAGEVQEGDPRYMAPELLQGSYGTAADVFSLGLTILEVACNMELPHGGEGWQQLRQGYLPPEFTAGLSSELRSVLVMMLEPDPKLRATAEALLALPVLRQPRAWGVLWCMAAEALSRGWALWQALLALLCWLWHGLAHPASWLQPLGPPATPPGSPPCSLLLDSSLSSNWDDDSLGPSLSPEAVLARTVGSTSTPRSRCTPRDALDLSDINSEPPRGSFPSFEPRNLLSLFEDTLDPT
In words: Myt1 kinase binding assay (LanthaScreen Eu Kinase Binding Assay). To be noted: 3 nM tracer 178, 2.5 nM PMYT-1, 1 nM Eu-labeled antibody; read-out: Myt1 kinase Binding IC50. Here is the method:
(§1) To calculate the emission ratio, the acceptor/tracer emission ([…]) was divided by the antibody/donor emission ([…]) and the average of duplicate measurement was used for calculations. Data plotting, analysis of binding, and curve fitting was done using Excel add-in XLfit version 5.5.0.5 (IDBS, Guildford, United Kingdom). […] “NT” means not tested.
We used a LanthaScreen Europium (Eu) Kinase Binding Assay to determine the binding affinities (IC50) of compounds to Myt1 kinase. […] “NT” designates that the compound was not tested in this assay.
In general terms: TR-FRET usually uses a lanthanide donor and a delayed reading to cut background.

The target of test [3] is T3, recombinant human Wee1A kinase (Homo sapiens, UniProt P30291).
T3 construct: full length Wee1 kinase was expressed by baculovirus in insect cells; purchased Invitrogen PV3817; host or cells: insect cells (baculovirus)
T3 sequence (P30291 whole entry): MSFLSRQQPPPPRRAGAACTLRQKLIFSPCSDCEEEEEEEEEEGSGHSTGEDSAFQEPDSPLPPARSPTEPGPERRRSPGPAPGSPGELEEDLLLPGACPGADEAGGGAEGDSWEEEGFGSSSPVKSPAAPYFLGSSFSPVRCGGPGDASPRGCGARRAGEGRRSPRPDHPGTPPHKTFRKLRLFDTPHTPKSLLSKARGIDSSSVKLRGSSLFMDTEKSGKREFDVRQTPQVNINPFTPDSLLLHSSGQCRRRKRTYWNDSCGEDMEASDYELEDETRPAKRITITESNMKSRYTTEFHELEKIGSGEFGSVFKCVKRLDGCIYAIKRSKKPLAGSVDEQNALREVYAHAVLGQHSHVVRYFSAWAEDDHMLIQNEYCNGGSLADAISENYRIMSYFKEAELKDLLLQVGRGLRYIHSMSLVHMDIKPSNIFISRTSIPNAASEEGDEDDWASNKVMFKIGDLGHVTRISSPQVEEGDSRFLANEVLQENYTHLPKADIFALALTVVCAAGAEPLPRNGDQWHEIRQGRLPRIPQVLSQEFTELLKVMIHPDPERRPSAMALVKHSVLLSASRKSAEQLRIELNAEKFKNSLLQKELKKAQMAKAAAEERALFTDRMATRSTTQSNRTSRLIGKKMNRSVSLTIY
In words: Wee1A kinase binding assay (LanthaScreen Eu time-resolved FRET). To be noted: 30 nM tracer 178, 5 nM Wee1A kinase, 2 nM Eu-labeled antibody; 60 minutes at room temperature; read-out: Wee1A kinase Binding IC50. Here is the method:
This time resolved-FRET binding assay was performed in white 384-well low volume plates (Greiner, cat #784075), at room temperature in kinase buffer A (KBA; Invitrogen cat #PV3189), consisting of 50 mM HEPES-NaOH (pH 7.5), 0.01% Brij-35, 10 mM MgCl2, and 1 mM EGTA. 5 μL of compound (diluted in reaction buffer, to 1% DMSO) were added to various wells in the plate, followed by 5 μL each of recombinant human Wee1A kinase (full length Wee1 kinase was expressed by baculovirus in insect cells using a N-terminal GST tag (MW: 99.1 kDa) (Invitrogen cat #PV3817) and LanthaScreen Eu-anti-GST antibody (Invitrogen, cat #PV5594). After this, 5 μL of kinase tracer 178 (Invitrogen, cat #PV5593) was added to the plate and the plate was incubated for 60 minutes at room temperature. The final assay conditions in each well were: 30 nM tracer 178, 5 nM Wee1A kinase and 2 nM Eu-labeled antibody in total assay volume of 15 μL. An Envision 2104 (Perkin-Elmer) Plate Reader with the following time-resolve fluorescence setting was used for performing LanthaScreen kinase binding assay. • Excitation 320 nm (30 nm bandpass) • Kinase Tracer Emission 665 nm (10 nm bandpass) • LanthaScreen Eu-anti-Tag Antibody Emission 615 nm (10 nm bandpass) • Dichroic Mirror Instrument dependent • Delay Time 100 μs • Integration Time 200 μs
as §1

Molecules are shown by their SMILES.

T1 sequence (P30291 whole entry): as above

As for `C=CCn1c(=O)c2cnc(Nc3ccc4c(cnn4C)c3)nc2n1-c1cccc(O[C@H]2CCN[C@H](C)C2)n1` (stereo in doubt) [Compound 379, 2-allyl-6-((1-methyl-1H-indazol-5-yl)amino)-1-(6-(((2R,4S)-2-methylpiperidin-4-yl)oxy)pyridin-2-yl)-1,2-dihydro-3H-pyrazolo[3,4-d]pyrimidin-3-one], the EC50 (commonly the concentration needed to bring the measured effect to its halfway point) in test [1] is 100 to 500 nM. Moreover, the concentration for half-maximal inhibition (IC50) (as a rule, the concentration that inhibits the measured activity by half) was 100 to 500 nM in test [2] and under 10 nM in test [3].

`C=CCn1c(=O)c2cnc(Nc3ccc4c(cnn4C)c3)nc2n1-c1cccc(O[C@H]2CCN(C)[C@H](C)C2)n1` (stereo in doubt) [Compound 380, rel-2-allyl-1-(6-(((2R,4S)-1,2-dimethylpiperidin-4-yl)oxy)pyridin-2-yl)-6-((1-methyl-1H-indazol-5-yl)amino)-1,2-dihydro-3H-pyrazolo[3,4-d]pyrimidin-3-one]: the half-maximal effective concentration (EC50) in test [1] was 100 to 500 nM. For the same compound, the values for the half-maximal inhibitory concentration (IC50) in test [2] and in test [3] were 100 to 500 nM and under 10 nM, respectively.

With `C=CCn1c(=O)c2cnc(Nc3ccc4c(cnn4C)c3)nc2n1-c1cccc(O[C@@H]2CCN[C@H](C)C2)n1` (stereo in doubt) [Compound 381, 2-allyl-6-((1-methyl-1H-indazol-5-yl)amino)-1-(6-(((2R,4R)-2-methylpiperidin-4-yl)oxy)pyridin-2-yl)-1,2-dihydro-3H-pyrazolo[3,4-d]pyrimidin-3-one], the half-maximal effective concentration (EC50) in test [1] is under 100 nM. For the same compound, the results for the IC50 in test [2] and in test [3] were 100 to 500 nM and under 10 nM, respectively.

Turning to `C=CCn1c(=O)c2cnc(Nc3ccc4c(cnn4C)c3)nc2n1-c1cccc(O[C@@H]2CCN(C)[C@H](C)C2)n1` (stereo in doubt) [Compound 382, 2-allyl-1-(6-(((2R,4R)-1,2-dimethylpiperidin-4-yl)oxy)pyridin-2-yl)-6-((1-methyl-1H-indazol-5-yl)amino)-1,2-dihydro-3H-pyrazolo[3,4-d]pyrimidin-3-one], in test [1], the concentration giving a half-maximal response (EC50) is under 100 nM. Also, the IC50 in test [2] is 100 to 500 nM; in test [3] it was under 10 nM.

As to `C=CCn1c(=O)c2cnc(Nc3ccc4c(cnn4C)c3)nc2n1-c1cccc(O[C@@H]2CCNC2)n1` [Compound 101, 1-{6-[(R)-3-pyrrolidinyloxy]-2-pyridyl}-2-allyl-6-(1-methyl-1H-indazol-5-ylamino)-1,2-dihydro-3H-1,2,5,7-tetraazainden-3-one], the EC50 in test [1] is 100 to 500 nM. Moreover, the results for the half-inhibitory concentration (IC50) in test [2] and in test [3] were 100 to 500 nM and under 10 nM, respectively.

Consider `C=CCn1c(=O)c2cnc(Nc3ccc4c(cnn4C)c3)nc2n1-c1cccc(N[C@H]2CCNC2)n1` [Compound 107, 1-{6-[(S)-3-pyrrolidinylamino]-2-pyridyl}-2-allyl-6-(1-methyl-1H-indazol-5-ylamino)-1,2-dihydro-3H-1,2,5,7-tetraazainden-3-one], for which, in test [1], the concentration giving a half-maximal response (EC50) was over 1000 nM. Also, the half-maximal inhibitory concentration (IC50) is 20 to 100 nM in test [2] and under 10 nM in test [3].

Consider `CCCn1c(=O)c2cnc(Nc3ccc4c(cnn4C)c3)nc2n1-c1cccc(OC2CCNCC2)n1` [Compound 110, 6-[(1-methyl-1H-indazol-5-yl)amino]-1-[6-(piperidin-4-yloxy)pyridin-2-yl]-2-propyl-1H,2H,3H-pyrazolo[3,4-d]pyrimidin-3-one], for which, in test [1], the EC50 is 100 to 500 nM. Moreover, the values for the IC50 in test [2] and in test [3] were 20 to 100 nM and under 10 nM, respectively.

Regarding `CCCn1c(=O)c2cnc(Nc3ccc4c(cnn4C)c3)nc2n1-c1cccc(OC2CCN(C)CC2)n1` [Compound 111, 6-[(1-methyl-1H-indazol-5-yl)amino]-1-{6-[(1-methylpiperidin-4-yl)oxy]pyridin-2-yl}-2-propyl-1H,2H,3H-pyrazolo[3,4-d]pyrimidin-3-one], the 50% effective concentration (EC50) in test [1] was under 100 nM. In addition, the IC50 was 20 to 100 nM in test [2] and under 10 nM in test [3].

For the compound `C=CCn1c(=O)c2cnc(Nc3ccc4c(cnn4C)c3)nc2n1-c1cccc(N[C@@H]2CCN(C)C2)n1` [Compound 115], in test [1], the EC50 is under 100 nM. Moreover, the IC50 was 20 to 100 nM in test [2] and under 10 nM in test [3].
